Test results as given in patent publication EP4745135A1 (Gluetacs Therapeutics (Shanghai) Co., Ltd., priority 2023, dated 2025).

Experiments:
CK1α = biological target: T1, CK1α (Homo sapiens, UniProt P48729+Q96SW2); assay: Western blot, degradation of substrate protein in hPBMCs; assay type: cell-based
T1 construct: effects of the compounds of the present disclosure on the expression of target proteins in cells; endogenous in cells; host or cells: human PBMCs (Milecell Biotechnologies)

IKZF1 = biological target: T2, IKZF1 (Homo sapiens, UniProt Q13422+Q96SW2); assay: as above; assay type: cell-based
T2 construct: effects of the compounds of the present disclosure on the expression of target proteins in cells; endogenous in cells; host or cells: human PBMCs (Milecell Biotechnologies)

IKZF2 = biological target: T3, IKZF2 (Homo sapiens, UniProt Q96SW2+Q9UKS7); assay: as above; assay type: cell-based
T3 construct: effects of the compounds of the present disclosure on the expression of target proteins in cells; endogenous in cells; host or cells: human PBMCs (Milecell Biotechnologies)

IKZF3 = biological target: T4, IKZF3 (Homo sapiens, UniProt Q96SW2+Q9UKT9); assay: as above; assay type: cell-based
T4 construct: effects of the compounds of the present disclosure on the expression of target proteins in cells; endogenous in cells; host or cells: human PBMCs (Milecell Biotechnologies)

WEE1 = biological target: T5, WEE1 (Homo sapiens, UniProt P30291+Q96SW2); assay: as above; assay type: cell-based
T5 construct: effects of the compounds of the present disclosure on the expression of target proteins in cells; endogenous in cells; host or cells: human PBMCs (Milecell Biotechnologies)

GSPT1 = assay: as above; assay type: cell-based, Human
[1] = biological target: T6, human Cereblon WT GST-tagged protein (Homo sapiens, UniProt Q96SW2); assay: CRBN-binding affinity, HTRF (CEREBLON BINDING kit); details: for inhibition at 0.5 µM: read-out: Inhibition Rate at 0.5 µM (%); for inhibition at 2 µM: read-out: Inhibition Rate at 2 µM (%)
T6 construct: purchased CISBIO 64BDCRBNPEH

[2] = 24 hours treatment, compounds at 50 nM and 500 nM (concentration behind the class not stated)
[3] = Western blot, 24 hours of compound treatment, compounds tested at 50 nM and 500 nM (concentration for the table not stated)

T1 sequence (P48729 whole entry): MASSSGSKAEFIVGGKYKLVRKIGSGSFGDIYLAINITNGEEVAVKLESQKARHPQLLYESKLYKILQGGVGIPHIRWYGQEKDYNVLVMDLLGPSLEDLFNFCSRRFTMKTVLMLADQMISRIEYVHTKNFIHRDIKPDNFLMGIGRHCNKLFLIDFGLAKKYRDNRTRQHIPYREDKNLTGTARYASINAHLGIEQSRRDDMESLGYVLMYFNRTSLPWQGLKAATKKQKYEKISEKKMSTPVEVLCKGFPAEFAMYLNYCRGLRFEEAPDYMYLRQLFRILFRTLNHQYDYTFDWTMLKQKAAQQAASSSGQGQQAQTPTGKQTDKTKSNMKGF
T1 sequence (Q96SW2 whole entry): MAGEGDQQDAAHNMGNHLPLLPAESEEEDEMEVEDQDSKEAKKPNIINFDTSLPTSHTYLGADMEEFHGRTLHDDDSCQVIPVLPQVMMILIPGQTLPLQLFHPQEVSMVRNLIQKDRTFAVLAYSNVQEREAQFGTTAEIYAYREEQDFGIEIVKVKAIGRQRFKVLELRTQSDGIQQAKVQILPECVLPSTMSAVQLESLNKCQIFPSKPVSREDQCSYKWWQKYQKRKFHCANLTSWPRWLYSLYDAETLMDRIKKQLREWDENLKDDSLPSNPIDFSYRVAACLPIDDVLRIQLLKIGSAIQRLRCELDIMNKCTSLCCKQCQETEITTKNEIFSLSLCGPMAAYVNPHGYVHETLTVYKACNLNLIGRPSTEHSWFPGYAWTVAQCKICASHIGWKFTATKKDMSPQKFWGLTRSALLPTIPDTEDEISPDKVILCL
T1 sequence (Q16531 whole entry partner): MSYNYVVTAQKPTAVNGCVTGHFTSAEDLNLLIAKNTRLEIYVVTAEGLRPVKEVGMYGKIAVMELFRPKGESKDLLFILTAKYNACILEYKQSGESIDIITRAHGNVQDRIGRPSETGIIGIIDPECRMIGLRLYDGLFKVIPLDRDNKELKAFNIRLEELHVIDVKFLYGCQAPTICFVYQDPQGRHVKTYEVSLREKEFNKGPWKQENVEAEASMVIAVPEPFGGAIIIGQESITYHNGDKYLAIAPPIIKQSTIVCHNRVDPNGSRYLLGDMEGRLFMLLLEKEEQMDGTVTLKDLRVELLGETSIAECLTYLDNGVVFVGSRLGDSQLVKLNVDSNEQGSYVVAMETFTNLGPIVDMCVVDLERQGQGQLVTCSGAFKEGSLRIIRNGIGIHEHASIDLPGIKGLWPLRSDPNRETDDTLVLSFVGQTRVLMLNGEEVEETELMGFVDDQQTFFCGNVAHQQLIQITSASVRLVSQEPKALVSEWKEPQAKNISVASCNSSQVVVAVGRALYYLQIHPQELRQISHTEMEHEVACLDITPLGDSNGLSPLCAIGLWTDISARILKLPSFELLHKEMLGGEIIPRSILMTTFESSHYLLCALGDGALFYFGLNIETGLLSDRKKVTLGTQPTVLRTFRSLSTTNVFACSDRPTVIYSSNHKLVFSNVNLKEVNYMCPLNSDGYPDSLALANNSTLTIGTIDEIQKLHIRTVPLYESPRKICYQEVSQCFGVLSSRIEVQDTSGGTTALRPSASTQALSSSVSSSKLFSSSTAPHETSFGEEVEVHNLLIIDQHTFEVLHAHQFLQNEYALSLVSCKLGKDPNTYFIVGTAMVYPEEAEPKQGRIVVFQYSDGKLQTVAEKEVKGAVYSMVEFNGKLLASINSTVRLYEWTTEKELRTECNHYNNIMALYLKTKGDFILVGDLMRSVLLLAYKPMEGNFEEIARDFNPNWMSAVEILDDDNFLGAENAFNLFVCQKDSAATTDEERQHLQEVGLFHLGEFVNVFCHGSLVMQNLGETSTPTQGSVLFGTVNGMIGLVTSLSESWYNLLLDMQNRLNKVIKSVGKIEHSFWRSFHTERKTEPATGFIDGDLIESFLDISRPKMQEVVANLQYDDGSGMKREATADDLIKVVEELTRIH
T5 sequence (P30291 whole entry): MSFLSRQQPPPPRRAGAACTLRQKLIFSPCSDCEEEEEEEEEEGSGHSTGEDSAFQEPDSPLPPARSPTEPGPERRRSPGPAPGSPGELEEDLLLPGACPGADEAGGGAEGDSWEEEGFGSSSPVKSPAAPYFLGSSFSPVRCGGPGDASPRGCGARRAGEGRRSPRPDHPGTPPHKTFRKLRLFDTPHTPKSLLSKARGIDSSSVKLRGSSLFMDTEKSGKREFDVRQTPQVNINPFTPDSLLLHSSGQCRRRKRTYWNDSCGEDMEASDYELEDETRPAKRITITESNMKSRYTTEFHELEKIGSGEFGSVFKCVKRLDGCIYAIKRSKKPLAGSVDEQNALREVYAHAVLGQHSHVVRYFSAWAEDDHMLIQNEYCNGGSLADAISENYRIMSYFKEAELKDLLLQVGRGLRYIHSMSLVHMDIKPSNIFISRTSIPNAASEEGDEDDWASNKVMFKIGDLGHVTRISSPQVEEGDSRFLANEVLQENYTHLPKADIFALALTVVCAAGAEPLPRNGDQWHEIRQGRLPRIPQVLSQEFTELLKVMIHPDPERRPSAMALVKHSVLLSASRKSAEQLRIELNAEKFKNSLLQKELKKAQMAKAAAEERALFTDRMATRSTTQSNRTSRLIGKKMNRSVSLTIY
T5 sequence (Q96SW2 whole entry): as the sequence (Q96SW2 whole entry) above
T5 sequence (Q16531 whole entry partner): as the sequence (Q16531 whole entry partner) above
T4 sequence (Q9UKT9 whole entry): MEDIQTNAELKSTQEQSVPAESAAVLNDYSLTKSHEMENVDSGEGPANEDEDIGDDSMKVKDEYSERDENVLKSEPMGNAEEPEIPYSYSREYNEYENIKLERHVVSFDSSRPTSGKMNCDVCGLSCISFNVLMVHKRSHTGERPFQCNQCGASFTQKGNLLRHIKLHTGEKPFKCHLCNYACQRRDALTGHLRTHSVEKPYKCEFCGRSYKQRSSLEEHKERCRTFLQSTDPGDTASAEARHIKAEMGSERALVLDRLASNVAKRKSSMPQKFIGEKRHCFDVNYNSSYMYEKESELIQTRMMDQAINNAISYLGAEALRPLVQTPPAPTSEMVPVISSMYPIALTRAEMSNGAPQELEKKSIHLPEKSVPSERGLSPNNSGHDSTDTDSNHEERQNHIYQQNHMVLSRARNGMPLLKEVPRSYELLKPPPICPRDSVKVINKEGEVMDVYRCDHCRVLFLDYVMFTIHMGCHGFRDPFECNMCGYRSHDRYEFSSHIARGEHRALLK
T4 sequence (Q96SW2 whole entry): as the sequence (Q96SW2 whole entry) above
T4 sequence (Q16531 whole entry partner): as the sequence (Q16531 whole entry partner) above
T6 sequence (Q96SW2 whole entry): as the sequence (Q96SW2 whole entry) above
T3 sequence (Q9UKS7 whole entry): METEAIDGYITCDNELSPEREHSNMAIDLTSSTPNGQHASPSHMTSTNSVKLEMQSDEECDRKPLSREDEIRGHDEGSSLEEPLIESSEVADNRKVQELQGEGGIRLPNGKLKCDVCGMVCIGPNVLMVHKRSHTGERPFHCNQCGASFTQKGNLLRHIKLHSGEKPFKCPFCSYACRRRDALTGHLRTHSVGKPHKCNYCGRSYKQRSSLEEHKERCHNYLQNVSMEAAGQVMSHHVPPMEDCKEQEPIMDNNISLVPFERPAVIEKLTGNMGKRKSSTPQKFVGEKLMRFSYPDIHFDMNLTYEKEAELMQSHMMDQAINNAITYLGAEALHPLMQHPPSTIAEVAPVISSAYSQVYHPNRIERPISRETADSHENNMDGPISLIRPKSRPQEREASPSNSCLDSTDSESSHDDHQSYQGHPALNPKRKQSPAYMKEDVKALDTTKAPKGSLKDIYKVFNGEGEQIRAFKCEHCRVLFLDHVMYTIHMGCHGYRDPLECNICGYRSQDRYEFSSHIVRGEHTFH
T3 sequence (Q96SW2 whole entry): as the sequence (Q96SW2 whole entry) above
T3 sequence (Q16531 whole entry partner): as the sequence (Q16531 whole entry partner) above
T2 sequence (Q13422 whole entry): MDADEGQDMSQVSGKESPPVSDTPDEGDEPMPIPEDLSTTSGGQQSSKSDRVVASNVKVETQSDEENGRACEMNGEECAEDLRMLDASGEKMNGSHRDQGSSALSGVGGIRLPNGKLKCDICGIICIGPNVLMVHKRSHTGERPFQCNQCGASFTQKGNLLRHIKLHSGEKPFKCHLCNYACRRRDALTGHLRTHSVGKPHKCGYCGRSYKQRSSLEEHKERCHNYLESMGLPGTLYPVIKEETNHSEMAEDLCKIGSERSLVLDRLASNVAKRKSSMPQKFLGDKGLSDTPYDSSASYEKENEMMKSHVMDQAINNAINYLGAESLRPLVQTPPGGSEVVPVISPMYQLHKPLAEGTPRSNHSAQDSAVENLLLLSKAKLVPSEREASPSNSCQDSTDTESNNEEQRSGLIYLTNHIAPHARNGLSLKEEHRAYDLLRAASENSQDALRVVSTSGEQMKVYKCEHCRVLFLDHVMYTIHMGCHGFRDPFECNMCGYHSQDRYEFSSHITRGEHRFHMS
T2 sequence (Q96SW2 whole entry): as the sequence (Q96SW2 whole entry) above
T2 sequence (Q16531 whole entry partner): as the sequence (Q16531 whole entry partner) above

SMILES | CK1α substrate protein remaining % (CK1α; [2]) | IKZF 1 substrate protein remaining % (IKZF1; [2]) | IKZF2 substrate protein remaining % (IKZF2; [2]) | IKZF3 substrate protein remaining % (IKZF3; [2]) | Wee1 substrate protein remaining % (WEE1; [2]) | GSPT1 substrate protein remaining % (GSPT1; [2]) | inhibition at 0.5 µM [1] [%] | inhibition at 2 µM [1] [%] | CK1α substrate protein remaining % (CK1α; [3]) | IKZF 1 substrate protein remaining % (IKZF1; [3]) | IKZF2 substrate protein remaining % (IKZF2; [3]) | IKZF3 substrate protein remaining % (IKZF3; [3]) | Wee1 substrate protein remaining % (WEE1; [3]) | GSPT1 substrate protein remaining % (GSPT1; [3])
Cc1cc2c(N3CCN(Cc4cccc5c4CN(C4CCC(=O)NC4=O)C5=S)CC3)ncnc2s1 (centres unmarked) [GT-08914, 3-(4-((4-(6-methylthieno[2,3-d]pyrimidin-4-yl)piperazin-1-yl)methyl)-1-thioxoisoindolin-2-yl)piperidine-2,6-dione] | B (80%< substrate protein remaining %≤ 100%) | B (80%< substrate protein remaining %≤ 100%) | B (80%< substrate protein remaining %≤ 100%) | B (80%< substrate protein remaining %≤ 100%) | A (0% ≤ substrate protein remaining % ≤ 80%) | B (80%< substrate protein remaining %≤ 100%) | 60 to 80 | 80 to 100 | – | – | – | – | – | –
Cc1ccc(C2CCN(Cc3cccc4c3CN(C3CCC(=O)NC3=O)C4=S)CC2)s1 (centres unmarked) [GT-08312, 3-(4-((4-(5-methylthiophen-2-yl)piperidin-1-yl)methyl)-1-thioxoisoindolin-2-yl)piperidine-2,6-dione] | B (80%< substrate protein remaining %≤ 100%) | B (80%< substrate protein remaining %≤ 100%) | B (80%< substrate protein remaining %≤ 100%) | B (80%< substrate protein remaining %≤ 100%) | A (0% ≤ substrate protein remaining % ≤ 80%) | B (80%< substrate protein remaining %≤ 100%) | 53 to 60 | 80 to 100 | – | – | – | – | – | –
O=C1CCC(N2Cc3c(CN4CCN(c5ncnc(Cl)c5Cl)CC4)cccc3C2=S)C(=O)N1 (centres unmarked) [GT-08814, 3-(4-((4-(5,6-dichloropyrimidin-4-yl)piperazin-1-yl)methyl)-1-thioxoisoindolin-2-yl)piperidine-2,6-dione] | – | – | – | – | – | – | 60 to 80 | 80 to 100 | B (80%< substrate protein remaining %≤ 100%) | B (80%< substrate protein remaining %≤ 100%) | A (0% ≤ substrate protein remaining % ≤ 80%) | B (80%< substrate protein remaining %≤ 100%) | B (80%< substrate protein remaining %≤ 100%) | B (80%< substrate protein remaining %≤ 100%)
Cc1nc(C2CCN(Cc3cccc4c3CN(C3CCC(=O)NC3=O)C4=S)CC2)c2ccsc2n1 (centres unmarked) [GT-08932, 3-(4-((4-(2-methylthieno[2,3-d]pyrimidin-4-yl)piperidin-1-yl)methyl)-1-thioxoisoindolin-2-yl)piperidine-2,6-dione] | B (80%< substrate protein remaining %≤ 100%) | B (80%< substrate protein remaining %≤ 100%) | B (80%< substrate protein remaining %≤ 100%) | B (80%< substrate protein remaining %≤ 100%) | A (0% ≤ substrate protein remaining % ≤ 80%) | B (80%< substrate protein remaining %≤ 100%) | 60 to 80 | 80 to 100 | – | – | – | – | – | –
O=C1CCC(N2Cc3c(CN4CCN(c5cc(Cl)cc(Cl)c5)CC4)cccc3C2=S)C(=O)N1 (centres unmarked) [GT-08629, 3-(4-((4-(3,5-dichlorophenyl)piperazin-1-yl)methyl)-1-thioxoisoindolin-2-yl)piperidine-2,6-dione] | – | – | – | – | – | – | 40 to 53 | 60 to 80 | A (0% ≤ substrate protein remaining % ≤ 80%) | B (80%< substrate protein remaining %≤ 100%) | B (80%< substrate protein remaining %≤ 100%) | B (80%< substrate protein remaining %≤ 100%) | A (0% ≤ substrate protein remaining % ≤ 80%) | B (80%< substrate protein remaining %≤ 100%)
O=C1CCC(N2Cc3c(CN4CCC(c5ccc(Cl)cc5)CC4)cccc3C2=S)C(=O)N1 (centres unmarked) [GT-08594, 3-(4-((4-(4-chlorophenyl)piperidin-1-yl)methyl)-1-thioxoisoindolin-2-yl)piperidine-2,6-dione] | – | – | – | – | – | – | 30 to 40 | 53 to 60 | B (80%< substrate protein remaining %≤ 100%) | B (80%< substrate protein remaining %≤ 100%) | A (0% ≤ substrate protein remaining % ≤ 80%) | B (80%< substrate protein remaining %≤ 100%) | A (0% ≤ substrate protein remaining % ≤ 80%) | B (80%< substrate protein remaining %≤ 100%)
O=C1CCC(N2Cc3c(CN4CCN(c5ncncn5)CC4)cccc3C2=S)C(=O)N1 (centres unmarked) [GT-08808, 3-(4-((4-(1,3,5-triazin-2-yl)piperazin-1-yl)methyl)-1-thioxoisoindolin-2-yl)piperidine-2,6-dione] | – | – | – | – | – | – | 60 to 80 | 80 to 100 | B (80%< substrate protein remaining %≤ 100%) | B (80%< substrate protein remaining %≤ 100%) | B (80%< substrate protein remaining %≤ 100%) | B (80%< substrate protein remaining %≤ 100%) | A (0% ≤ substrate protein remaining % ≤ 80%) | B (80%< substrate protein remaining %≤ 100%)
CC1(C)CN(Cc2ccc3c(c2)CN(C2CCC(=O)NC2=O)C3=S)CCN1C(c1ccccc1)c1ccccc1 (centres unmarked) [GT-07845, 3-(5-((4-benzhydryl-3,3-dimethylpiperazin-1-yl)methyl)-1-thioxoisoindolin-2-yl)piperidine-2,6-dione] | – | – | – | – | – | – | 40 to 53 | 60 to 80 | B (80%< substrate protein remaining %≤ 100%) | A (0% ≤ substrate protein remaining % ≤ 80%) | A (0% ≤ substrate protein remaining % ≤ 80%) | B (80%< substrate protein remaining %≤ 100%) | A (0% ≤ substrate protein remaining % ≤ 80%) | B (80%< substrate protein remaining %≤ 100%)
O=C1CCC(N2Cc3c(CN4CCN(c5nccc(I)c5F)CC4)cccc3C2=S)C(=O)N1 (centres unmarked) [GT-08704, 3-(4-((4-(3-fluoro-4-iodopyridin-2-yl)piperazin-1-yl)methyl)-1-thioxoisoindolin-2-yl)piperidine-2,6-dione] | – | – | – | – | – | – | 40 to 53 | 80 to 100 | B (80%< substrate protein remaining %≤ 100%) | B (80%< substrate protein remaining %≤ 100%) | A (0% ≤ substrate protein remaining % ≤ 80%) | A (0% ≤ substrate protein remaining % ≤ 80%) | A (0% ≤ substrate protein remaining % ≤ 80%) | B (80%< substrate protein remaining %≤ 100%)
O=C1CCC(N2Cc3c(CN4CC=C(c5cncc(Cl)c5Cl)CC4)cccc3C2=S)C(=O)N1 (centres unmarked) [GT-08460, 3-(4-((4,5-dichloro-3',6'-dihydro-[3,4'-bipyridin]-1'(2'H)-yl)methyl)-1-thioxoisoindolin-2-yl)piperidine-2,6-dione] | – | – | – | – | – | – | 60 to 80 | 80 to 100 | B (80%< substrate protein remaining %≤ 100%) | B (80%< substrate protein remaining %≤ 100%) | B (80%< substrate protein remaining %≤ 100%) | A (0% ≤ substrate protein remaining % ≤ 80%) | A (0% ≤ substrate protein remaining % ≤ 80%) | B (80%< substrate protein remaining %≤ 100%)
